Measurements taken from ChEMBL document CHEMBL1201862, “PubChem BioAssay data set” (2004).
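Method: 48-hour compound exposure of cells in 96-well plates, five concentrations, linear interpolation of endpoints. The concentration for 50% growth inhibition is given as GI50.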 Active and inactive are the calls of the source. No stated cut-off is given here; in the data, active = GI50 up to about 1.1 µM and inactive = higher.

Experiments:
Test in all cases: growth of human tumour cells (NCI), 48 h
[1] = tested on: HL-60
[2] = tested on: SNB-19
[3] = tested on: ACHN
[4] = tested on: TK-10
[5] = tested on: K562
[6] = tested on: OVCAR-8
[7] = tested on: SF-539
[8] = tested on: UACC-257
[9] = tested on: NCI-H23
[10] = tested on: NCI-H226
[11] = tested on: SF-268
[12] = tested on: SNB-75
[13] = tested on: SR
[14] = tested on: HOP-92
[15] = tested on: RXF 393
[16] = tested on: A498

| SMILES | GI50 [1] | GI50 [2] | GI50 [3] | GI50 [4] | GI50 [5] | GI50 [6] | GI50 [7] | GI50 [8] | GI50 [9] | GI50 [10] | GI50 [11] | GI50 [12] | GI50 [13] | GI50 [14] | GI50 [15] | GI50 [16] |
| --- | --- | --- | --- | --- | --- | --- | --- | --- | --- | --- | --- | --- | --- | --- | --- | --- |
| CSc1nc(Cl)c(Br)c(Sc2nc(N)nc3nc[nH]c23)n1 | 3.63 µM (inactive) | 16.6 µM (inactive) | 15.3 µM (inactive) | 6.79 µM (inactive) | 3.34 µM (inactive) | 11 µM (inactive) | 2.81 µM (inactive) | 13.9 µM (inactive) | 10.4 µM (inactive) | 10.5 µM (inactive) | 3.44 µM (inactive) | 3.03 µM (inactive) | 3.48 µM (inactive) | 7.28 µM (inactive) |  |  |
| O=C(/C=C/c1ccccc1Cl)c1ccc(Cl)c(Cl)c1 | 25.8 µM (inactive) | 16.4 µM (inactive) | 15.3 µM (inactive) | 18.5 µM (inactive) | 26.8 µM (inactive) | 17.7 µM (inactive) | 18.2 µM (inactive) | 19.7 µM (inactive) | 20 µM (inactive) | > 100 µM (inactive) | 18.3 µM (inactive) | 13 µM (inactive) | 21.7 µM (inactive) | 26.9 µM (inactive) | 13.1 µM (inactive) | 15.9 µM (inactive) |
| COc1ccc(C(C#N)NNC(=O)c2ccccc2O)cc1OC (centres undefined) | 1.76 µM (inactive) |  | 0.384 µM (active) | 14.6 µM (inactive) | 0.356 µM (active) | 1.46 µM (inactive) | 0.705 µM (active) | 3.84 µM (inactive) | 0.746 µM (active) | 1.96 µM (inactive) | 0.468 µM (active) | 0.331 µM (active) | 0.463 µM (active) |  | 0.902 µM (active) |  |
| COc1ccc2c(c1)CCC1C3(CCCC21C)OCCO3 (centres undefined) | 15.9 µM (inactive) | 28.9 µM (inactive) | 23.3 µM (inactive) | 36.8 µM (inactive) | 15.4 µM (inactive) | 17.5 µM (inactive) | 12.9 µM (inactive) | 20.8 µM (inactive) | 15.6 µM (inactive) | 17.4 µM (inactive) | 6.9 µM (inactive) | 19.8 µM (inactive) | 20.4 µM (inactive) | 15.1 µM (inactive) | 13.7 µM (inactive) | 29.6 µM (inactive) |
| O=C(CC1(O)C(=O)Nc2c(Cl)cc(Cl)cc21)c1ccc(Br)cc1 (centres undefined) | 4.3 µM (inactive) | 16.3 µM (inactive) | 15.3 µM (inactive) | 17.6 µM (inactive) | 24.5 µM (inactive) | 33.8 µM (inactive) | 16.3 µM (inactive) | 29.4 µM (inactive) | 14 µM (inactive) | 14.9 µM (inactive) | 16.4 µM (inactive) | 17.1 µM (inactive) | 19.8 µM (inactive) | 15.7 µM (inactive) | 16 µM (inactive) | > 49.2 µM (inactive) |
| Cc1[nH]c2ccccc2c1C(=O)CC1(O)C(=O)Nc2ccccc21 (centres undefined) | > 100 µM (inactive) | > 100 µM (inactive) | > 100 µM (inactive) | > 100 µM (inactive) | > 100 µM (inactive) |  | > 100 µM (inactive) | > 100 µM (inactive) | > 100 µM (inactive) | > 100 µM (inactive) | > 100 µM (inactive) | > 100 µM (inactive) | > 100 µM (inactive) | > 100 µM (inactive) | > 100 µM (inactive) | > 100 µM (inactive) |
| CC(=O)OCC(OC(C)=O)C(OC(C)=O)C(OC(C)=O)C(=O)CNn1c(-c2ccccc2Cl)nc2ccccc2c1=O (centres undefined) | 38.5 µM (inactive) | > 100 µM (inactive) | > 100 µM (inactive) |  | > 100 µM (inactive) | > 100 µM (inactive) | > 100 µM (inactive) | > 100 µM (inactive) | > 100 µM (inactive) | > 100 µM (inactive) | > 100 µM (inactive) | > 100 µM (inactive) | 61.9 µM (inactive) |  | > 100 µM (inactive) | > 100 µM (inactive) |
| CCOC(=O)C1=C(C)CC2C(=O)OC(=O)C2C1(C)C (centres undefined) | > 100 µM (inactive) | > 100 µM (inactive) | > 100 µM (inactive) | > 100 µM (inactive) | > 100 µM (inactive) | > 100 µM (inactive) | > 100 µM (inactive) | > 100 µM (inactive) | > 100 µM (inactive) | > 100 µM (inactive) | > 100 µM (inactive) |  | > 100 µM (inactive) | > 100 µM (inactive) | > 100 µM (inactive) |  |
| N#C/C(=C1\N=NC(N)=C(c2ccc(Cl)cc2)C1=O)c1ccc(Cl)cc1 | > 100 µM (inactive) | > 100 µM (inactive) | > 100 µM (inactive) | > 100 µM (inactive) | > 100 µM (inactive) | > 100 µM (inactive) | > 100 µM (inactive) | > 100 µM (inactive) | > 100 µM (inactive) | > 100 µM (inactive) | > 100 µM (inactive) | > 100 µM (inactive) | > 100 µM (inactive) | > 100 µM (inactive) | > 100 µM (inactive) | > 100 µM (inactive) |
| Cc1nc2c(n1CCO)C(=O)c1ccccc1C2=O | 19.9 µM (inactive) | 43 µM (inactive) | 25.1 µM (inactive) | > 100 µM (inactive) | 25.6 µM (inactive) | 30.3 µM (inactive) | 29.9 µM (inactive) | 16.6 µM (inactive) | 15 µM (inactive) | > 100 µM (inactive) | 32.5 µM (inactive) | 82.2 µM (inactive) | 26.4 µM (inactive) |  | 33.7 µM (inactive) |  |
| CN(C)C(=S)/N=c1\ssc(=S)n1C1CCCCC1 | 11.2 µM (inactive) | 57.7 µM (inactive) | 35.9 µM (inactive) | > 100 µM (inactive) | 16.9 µM (inactive) | 21.4 µM (inactive) | 20.7 µM (inactive) | 22.4 µM (inactive) | 44 µM (inactive) | 52.5 µM (inactive) | 32.4 µM (inactive) | 42.7 µM (inactive) | 20.5 µM (inactive) | 35.2 µM (inactive) | 33.3 µM (inactive) | 37.2 µM (inactive) |
| C[Si](C)(C)c1ccc(-c2sc(-c3ccc([Si](C)(C)C)s3)c3c2C[Si]2(C3)Cc3c(-c4ccc([Si](C)(C)C)s4)sc(-c4ccc([Si](C)(C)C)s4)c3C2)s1 | > 100 µM (inactive) | > 100 µM (inactive) | > 100 µM (inactive) | > 100 µM (inactive) | > 100 µM (inactive) | > 100 µM (inactive) | > 100 µM (inactive) | > 100 µM (inactive) | > 100 µM (inactive) | > 100 µM (inactive) | > 100 µM (inactive) | 24.9 µM (inactive) | > 100 µM (inactive) | > 100 µM (inactive) | > 100 µM (inactive) |  |
| CCOC(=O)CC(C)C1(C=O)CCCCC1=O (centres undefined) | > 100 µM (inactive) | > 100 µM (inactive) | > 100 µM (inactive) | > 100 µM (inactive) | > 100 µM (inactive) | > 100 µM (inactive) | > 100 µM (inactive) | > 100 µM (inactive) |  | > 100 µM (inactive) | > 100 µM (inactive) | > 100 µM (inactive) | 19.9 µM (inactive) |  | > 100 µM (inactive) | > 100 µM (inactive) |
| CC1CC2C(=O)NC(=O)C2c2[nH]c3ccccc3c21 (centres undefined) | 40.6 µM (inactive) |  | > 100 µM (inactive) |  | 91.2 µM (inactive) | > 100 µM (inactive) | > 100 µM (inactive) |  | > 100 µM (inactive) | 67.1 µM (inactive) | > 100 µM (inactive) | 1.53 µM (inactive) | > 100 µM (inactive) | 34.4 µM (inactive) |  |  |
